# Experimental data taken from US20040248765A1, “Tumour targeting prodrugs activated by metallo matrixproteinases” (priority 2001, published 2004).
# Read-outs that look alike come from different tables or passages of the source. Where a SMILES comes first, the peptide text is derived from it. [ ]: non-standard residue; d: D form. The star is where a group is joined. NH(CH2)3NH(1-anthraquinonyl) = O=C1c2ccccc2C(=O)c2c(NCCCN*)cccc21
# Tests used:
# topo I = molecular target: T1, topo I (Homo sapiens, UniProt P11387); assay: Inhibition of topo I-mediated relaxation of pBR322 DNA; format: biochemical; conditions: for LEVEL OF INHIBITION of topo I-mediated relaxation pBR322 DNA: tested between 1-100 μM
# T1 sequence (P11387 1-765): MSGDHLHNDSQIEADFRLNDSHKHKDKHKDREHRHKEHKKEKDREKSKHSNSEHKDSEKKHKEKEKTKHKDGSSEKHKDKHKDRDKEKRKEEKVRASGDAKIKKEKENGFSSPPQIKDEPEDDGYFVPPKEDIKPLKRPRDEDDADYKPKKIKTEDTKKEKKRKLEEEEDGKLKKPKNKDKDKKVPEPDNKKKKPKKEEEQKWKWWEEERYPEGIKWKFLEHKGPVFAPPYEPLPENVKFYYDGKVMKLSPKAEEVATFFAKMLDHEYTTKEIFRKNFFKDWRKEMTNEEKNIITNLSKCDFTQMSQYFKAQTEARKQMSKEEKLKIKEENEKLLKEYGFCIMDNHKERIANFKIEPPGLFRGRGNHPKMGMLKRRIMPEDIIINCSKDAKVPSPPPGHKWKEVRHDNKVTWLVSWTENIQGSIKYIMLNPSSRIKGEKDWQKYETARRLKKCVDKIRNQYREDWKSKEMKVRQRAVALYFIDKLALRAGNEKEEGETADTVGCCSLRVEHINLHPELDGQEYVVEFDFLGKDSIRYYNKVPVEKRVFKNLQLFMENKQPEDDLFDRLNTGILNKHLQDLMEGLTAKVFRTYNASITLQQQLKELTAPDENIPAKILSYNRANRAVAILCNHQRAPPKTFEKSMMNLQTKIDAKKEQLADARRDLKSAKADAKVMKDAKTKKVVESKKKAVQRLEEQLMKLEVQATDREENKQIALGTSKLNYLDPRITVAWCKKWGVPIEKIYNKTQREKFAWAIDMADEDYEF
# Description: Neither example (8) [NU:UB187] (heptapeptide) nor its hexa-, penta-, or tetra-peptide metabolites {examples (7) [NU:UB 205], (6) [NU:UB 204] and (5) [NU:UB 186] respectively} inhibited the topo I- mediated relaxation of pBR322 DNA at concentrations up to 100 μM. […] (the preferred MMP-2 cleavage product of example (8) [NU:UB187] The topo I activities of example (2) [NU:UB 31] and example (1b) [NU:UB 197] bad previously been determined [Table 1].
# [1] = In vitro tumour incubations: metabolism by dilute HT1080 tumour homogenate (HPLC); format: in vitro ADME; conditions: dilute HT1080 tumour homogenate (1:500)
# Description: Separation was achieved using gradient reversed phase HPLC On a Lichrospher (25×4 mm) column.
# Mobile phase A consisted of 10% acetonitrile: 90% TFA (0.05%) and mobile phase B of 60% acetonitrile: 40% TFA (0.05%). Optimum detection was at the λmax of 248 nm using a flow rate of 1.2 ml/min. The gradient profile was from 60% A to 5% A over 25 min.
# Sample preparation for HPLC was by simple protein precipitation. 3 vols. of methanol were added to 1 vol. of sample (typically 100 μl) which was centrifuged at 3000 g for 5 min. The supernatant was injected directly onto the HPLC column.
# In Vitro Tumour Incubations
# Solid tumour (HTT1080—excised from NCI-Nu mice under a Home Office Licence) was homogenised (1:4) in MMP buffer. Tumour homogenates were incubated at 25° C. and compounds (drugs) were added to the homogenate to give a final concentration of 10 μM or 100 μM. Samples were taken at timed intervals and prepared for HPLC analysis as described above.
# Where metabolism was so rapid tumour homogenates required dilution (to 1:500) before analysis.
# MAC15A = assay: In vitro cytotoxicity, MAC15A, 1 hour exposure; format: cell-based; conditions: for % cells remaining: 1 × 10^4 cells/ml
# [2] = tested on: MAC15A adenocarcinoma of the colon; assay: In vitro cytotoxicity against MAC15A adenocarcinoma of the colon, 96 hours exposure; format: cell-based
# calf thymus DNA [3] = assay: Fluorescence quenching, Ethidium Bromide displacement from calf thymus DNA; format: binding; conditions: for QE50 (Ethidium Bromide displacement): calf thymus DNA
# calf thymus DNA [4] = assay: Fluorescence quenching, Hoechst Dye 33258 displacement from calf thymus DNA; format: binding; conditions: for QH50 (Hoechst Dye 33258 displacement): calf thymus DNA
# human recombinant MMP-9 = molecular target: T2, human recombinant MMP-9 (Homo sapiens, UniProt P14780); assay: In vitro enzyme incubation with recombinant MMP-9 (HPLC, MS/MS); format: biochemical; conditions: HPLC and MS/MS
# T2 construct: purchased Calbiochem (Calbiochem-Novabiochem Ltd, Nottingham, UK)
# T2 sequence (P14780 94-707): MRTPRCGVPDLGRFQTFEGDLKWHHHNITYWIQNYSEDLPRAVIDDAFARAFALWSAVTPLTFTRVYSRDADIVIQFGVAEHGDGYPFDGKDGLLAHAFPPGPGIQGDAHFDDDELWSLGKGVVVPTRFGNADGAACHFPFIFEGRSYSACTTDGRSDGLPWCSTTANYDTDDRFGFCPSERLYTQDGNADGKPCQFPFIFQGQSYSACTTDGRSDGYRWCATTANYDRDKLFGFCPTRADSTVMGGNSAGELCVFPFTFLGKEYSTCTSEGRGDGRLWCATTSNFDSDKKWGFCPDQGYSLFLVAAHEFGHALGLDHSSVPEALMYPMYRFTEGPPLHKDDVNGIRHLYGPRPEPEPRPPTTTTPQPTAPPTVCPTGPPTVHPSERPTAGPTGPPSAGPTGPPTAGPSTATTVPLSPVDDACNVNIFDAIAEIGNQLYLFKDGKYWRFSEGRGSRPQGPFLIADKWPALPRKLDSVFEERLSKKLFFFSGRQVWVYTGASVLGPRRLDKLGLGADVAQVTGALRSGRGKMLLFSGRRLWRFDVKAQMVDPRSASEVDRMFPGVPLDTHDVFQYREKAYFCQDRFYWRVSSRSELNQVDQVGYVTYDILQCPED
# Description: In vitro Enzyme Incubations
# Compounds were incubated in vitro with purified recombinant enzyme (either MMP-9 or MMP-2) (Calbiochem, Nottingham, UK). Typically, compounds (drugs) were incubated at 5 μM concentrations using 10 μl of enzyme, 10μl of drug and 90 μl of buffer at 25° C. The buffer used consisted of 200 mM NaCl, 50 mM Tris, 5 mM CaCl2, 20 μM ZnSO4 and 0.05% Brij35 at pH 7.6.
# At various time points 20 μl samples were taken and 60 μl of methanol added to precipitate proteins as described above and the metabolism of the compounds was analysed by HPLC (as above).
# [5] = Stability in murine whole blood and mouse plasma; format: in vitro ADME
Compound,LEVEL OF INHIBITION of topo I-mediated relaxation pBR322 DNA (topo I),melting point [°C],% cells remaining (MAC15A; 1 μM) [%],% cells remaining (MAC15A; 10 μM) [%],% cells remaining (MAC15A; 100 μM) [%],IC50 (MAC15A; Mus musculus) [µM],also measured
"CC(C)C[C@H](NC(=O)[C@H](C)NC(=O)[C@H](C)N)C(=O)NCC(=O)N[C@@H](CC(C)C)C(=O)N1CCC[C@H]1C(=O)NCCCNc1cccc2c1C(=O)c1ccccc1C2=O.O=C(O)C(F)(F)F [Example 7, 1-[3-(L-Alanyl-L-alanyl-L-leucyl-glycyl-L-leucyl-L-prolylamino)-propylamino]anthraquinone trifluoroacetate]",No inhibition of relaxation between 1-100 μM,132,,,,,
CC(C)C[C@H](N)C(=O)N1CCC[C@H]1C(=O)NCCCNc1cccc2c1C(=O)c1ccccc1C2=O.O=C(O)C(F)(F)F [example (3)],,,,,,,"inhibition of topo I-mediated relaxation, in words (topo I): Greatest inhibitory activity"
"CC(C)C[C@H](NC(=O)[C@H](C)N)C(=O)NCC(=O)N[C@@H](CC(C)C)C(=O)N1CCC[C@H]1C(=O)NCCCNc1cccc2c1C(=O)c1ccccc1C2=O.O=C(O)C(F)(F)F [Example 6, 1-[3-(L-Alanyl-L-leucyl-glycyl-L-leucyl-L-prolylamino)propylamino]-anthraquinone trifluoroacetate]",No inhibition of relaxation between 1-100 μM,168,,,,,
CC(C)C[C@H](NC(=O)CN)C(=O)N1CCC[C@H]1C(=O)NCCCNc1cccc2c1C(=O)c1ccccc1C2=O.O=C(O)C(F)(F)F [example (4)],,,,,,,"inhibition of topo I-mediated relaxation, in words (topo I): weakly inhibited relaxation at 50 μM"
CC(C)C[C@H](NC(=O)[C@H](C)NC(=O)[C@H](C)NC(=O)[C@@H](C)N)C(=O)NCC(=O)N[C@@H](CC(C)C)C(=O)N1CCC[C@@H]1C(=O)NCCCNc1cccc2c1C(=O)c1ccccc1C2=O.O=C(O)C(F)(F)F [example (15)] (H-[dA]AALGL[dP]-{NH(CH2)3NH(1-anthraquinonyl)}),,,,,,,major products / metabolite [1]: the expected cleavage product example (11) [NU:UB 224]; rate of metabolism [1]: 2.5 μmol/min/g tissue
"CC(C)C[C@H](NC(=O)CN)C(=O)N1CCC[C@H]1C(=O)NCCCNc1cccc2c1C(=O)c1ccccc1C2=O.O=C(O)C(F)(F)F [Example 4, 1-[3-(Glycyl-L-leucyl-L-prolylamino)propylamino]anthraquinone trifluoroacetate]",Partial inhibition of relaxation at 50 μM,144 to 148,91,55,0,13,
"CC(C)C[C@H](NC(=O)[C@H](C)NC(=O)[C@H](C)NC(=O)[C@@H](C)N)C(=O)NCC(=O)N[C@@H](CC(C)C)C(=O)N1CCC[C@H]1C(=O)NCCCNc1cccc2c1C(=O)c1ccccc1C2=O.O=C(O)C(F)(F)F [Example 8, 1-[3-(D-Alanyl-L-alanyl-L-alanyl-L-leucyl-glycyl-L-leucyl-L-prolylamino)-propylamino]anthraquinone trifluoroacetate] (H-[dA]AALGLP-{NH(CH2)3NH(1-anthraquinonyl)})",No inhibition of relaxation between 1-100 μM,166,100,100,95,> 100,"IC50 ([2]; Mus musculus, 96 h): 36 µM; QE50 (Ethidium Bromide displacement) (calf thymus DNA [3]): 17 µM; intercalation into DNA (calf thymus DNA [3]; refers to Table 3): not to intercalate into DNA; QH50 (Hoechst Dye 33258 displacement) (calf thymus DNA [4]): 4 µM; groove binding to DNA (calf thymus DNA [4]; in comparison to example (2) NU:UB 31): weak groove binding agent; major products / metabolite [1]: the cleavage product Example 4 and the anthraquinone Example 1a; rate of metabolism [1]: 1.75 μmol/min/g tissue; cleavage product with MMP-9 (human recombinant MMP-9): cleavage to anthraquinonyl, spacer-linked tripeptide Example 4"
"O=C(O)C(F)(F)F.O=C1c2ccccc2C(=O)c2c(NCCCNC(=O)[C@@H]3CCCN3)cccc21 [Example 2, 1-[3-(L-Propylamino)propylamino]anthraquinone trifluoroacetate]",Complete inhibition of relaxation at 25 μM,,100,30,0,,"IC50 (MAC15A): 5 µM; IC50 ([2]; exposure time 96 hours, read-out: IC50): 4.3 µM; QE50 (Ethidium Bromide displacement) (calf thymus DNA [3]): 2 µM; QH50 (Hoechst Dye 33258 displacement) (calf thymus DNA [4]): 0.6 µM"
"CC(C)C[C@H](NC(=O)CNC(=O)[C@@H](N)CC(C)C)C(=O)N1CCC[C@H]1C(=O)NCCCNc1cccc2c1C(=O)c1ccccc1C2=O.O=C(O)C(F)(F)F [Example 5, 1-[3-(L-Leucyl-glycyl-L-leucyl-L-prolylamino)propylamino]-anthraquinone trifluoroacetate] (H-LGLP-{NH(CH2)3NH(1-anthraquinonyl)})",No inhibition of relaxation between 1-100 μM,144,89,100,0,30,
CC(C)C[C@H](NC(=O)[C@H](C)NC(=O)[C@H](C)NC(=O)[C@@H](C)N)C(=O)NCC(=O)N[C@@H](CC(C)C)C(=O)N1CCC[C@H]1C(=O)NCCCNc1cccc2c1C(=O)c1ccccc1C2=O.O=C(O)C(F)(F)F [example (8)] (H-[dA]AALGLP-{NH(CH2)3NH(1-anthraquinonyl)}),,,,,,,t½ ([5]; mouse plasma at 37° C.): > 13 h; half-life ([5]; murine whole blood): 1.46 h
"CC(C)C[C@H](N)C(=O)N1CCC[C@H]1C(=O)NCCCNc1cccc2c1C(=O)c1ccccc1C2=O.O=C(O)C(F)(F)F [Example 3, 1-[3-(L-Leucyl-L-prolylamino)propylamino]anthraquinone trifluoroacetate]",Complete inhibition of relaxation at 5 μM,126,80,58,1,14,"IC50 ([2]; Mus musculus, 96 h): 2 µM"
"NCCCNc1cccc2c1C(=O)c1ccccc1C2=O.O=C(O)C(F)(F)F [Example 1b, 1-[(3-Aminopropyl)amino]anthraquinone trifluoroacetate]",Complete inhibition of relaxation at 25 μM,,90,100,5,33,
